Measured values published in patent publication EP0674651B1, “SUBSTITUTED 6-AZAANDROSTENONES” (priority 1992, dated 1994).

Tests used:
[1] = target: T1, bovine adrenal 3β-hydroxy-Δ^5-steroid dehydrogenase / 3-keto-Δ^5-steroid isomerase (3βHSD) (Bos taurus, UniProt P14893); conditions: cited from earlier work
T1 construct: host or cells: bovine adrenal
T1 sequence (P14893 1-373): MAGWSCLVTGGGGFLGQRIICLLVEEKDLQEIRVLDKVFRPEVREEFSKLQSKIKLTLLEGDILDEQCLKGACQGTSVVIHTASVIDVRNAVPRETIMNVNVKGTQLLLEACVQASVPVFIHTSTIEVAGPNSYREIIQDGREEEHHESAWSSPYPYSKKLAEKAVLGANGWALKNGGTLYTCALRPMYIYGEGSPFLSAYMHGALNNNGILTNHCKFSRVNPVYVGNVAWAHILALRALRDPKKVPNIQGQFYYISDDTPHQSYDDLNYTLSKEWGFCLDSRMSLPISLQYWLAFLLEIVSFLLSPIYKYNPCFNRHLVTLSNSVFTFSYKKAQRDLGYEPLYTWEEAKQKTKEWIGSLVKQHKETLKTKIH

[2] = target: T2, porcine granulosa cell 3β-hydroxy-Δ^5-steroid dehydrogenase / 3-keto-Δ^5-steroid isomerase (3βHSD) (Sus scrofa, UniProt Q9N119); conditions: cited from earlier work
T2 construct: host or cells: porcine granulosa cells
T2 sequence (Q9N119 1-373): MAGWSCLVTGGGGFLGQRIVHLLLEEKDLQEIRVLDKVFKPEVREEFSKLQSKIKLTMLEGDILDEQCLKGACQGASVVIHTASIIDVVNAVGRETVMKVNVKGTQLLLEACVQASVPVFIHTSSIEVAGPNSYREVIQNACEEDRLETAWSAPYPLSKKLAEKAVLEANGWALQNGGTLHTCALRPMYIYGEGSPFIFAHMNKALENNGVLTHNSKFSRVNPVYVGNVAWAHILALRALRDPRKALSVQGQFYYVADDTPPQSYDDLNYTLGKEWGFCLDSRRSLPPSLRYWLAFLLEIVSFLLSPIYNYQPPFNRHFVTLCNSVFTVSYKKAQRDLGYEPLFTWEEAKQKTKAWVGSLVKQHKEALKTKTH

[3] = literature reports; cited from earlier work
[4] = target: T3, human type 1 5α-reductase (Homo sapiens, UniProt P18405); test: 5α-reductase in vitro inhibitory activity, human type 1
T3 sequence (P18405 1-259): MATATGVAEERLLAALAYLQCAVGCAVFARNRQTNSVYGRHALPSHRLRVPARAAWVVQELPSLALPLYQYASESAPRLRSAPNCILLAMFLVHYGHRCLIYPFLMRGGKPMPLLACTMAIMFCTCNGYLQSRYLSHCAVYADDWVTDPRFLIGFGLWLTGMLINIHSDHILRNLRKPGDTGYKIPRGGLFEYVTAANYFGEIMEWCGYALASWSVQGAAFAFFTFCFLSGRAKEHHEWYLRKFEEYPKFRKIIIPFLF

[5] = target: T4, human type 2 5α-reductase (Homo sapiens, UniProt P31213); test: 5α-reductase in vitro inhibitory activity, human type 2
T4 sequence (P31213 1-254): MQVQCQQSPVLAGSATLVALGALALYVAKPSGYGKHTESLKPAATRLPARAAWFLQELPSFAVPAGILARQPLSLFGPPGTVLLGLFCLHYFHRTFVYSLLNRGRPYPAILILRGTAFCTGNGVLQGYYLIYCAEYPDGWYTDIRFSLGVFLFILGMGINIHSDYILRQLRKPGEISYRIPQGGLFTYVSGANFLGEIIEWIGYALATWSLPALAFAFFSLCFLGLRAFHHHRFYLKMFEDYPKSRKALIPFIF
Method: (§1) Microsomes were prepared by homogenization of the tissue or cells, followed by differential centrifugation of the homogenate. […] Corresponding incubations were carried out with no test compound as a control study.
(§2) The percentage of conversion of testosterone to DHT in the presence of test compounds compared to the corresponding conversion in the control study was estimated using high pressure liquid chromatography (HPLC) with radiochemical detection.

[6] = target: Rat Prostatic 5α-reductase; test: 5α-reductase in vitro inhibitory activity, rat prostatic; conditions: read-out: IC50 Rat Prostatic; microsomes derived from prostate tissue from the rat
Method: as §1, §2

## CCN(CC)C(=O)[C@H]1CC[C@H]2[C@@H]3CC[C@H]4N(C)C(=O)CC[C@]4(C)[C@H]3CC[C@]12C [Compound 4-MA]
[1]
  inhibition of 3βHSD: potent inhibition
[2]
  inhibition of 3βHSD: potent inhibition
[3]
  hepatotoxicity: hepatotoxicity

## Cc1cc(C(C)(C)C)cc(C)c1NC(=O)[C@H]1CC[C@H]2[C@@H]3CNC4=CC(=O)CC[C@]4(C)[C@H]3CC[C@]12C [Compound 48, 17β-N-(2,6-Dimethyl-4-t-butyl)phenyl-carbamoyl-6-azaandrost-4-en-3-one]
[4]
  IC50: < 10 nM
[5]
  IC50: < 10 nM
[6]
  IC50: 10 to 100 nM

## CC(C)c1cc(Br)c(NC(=O)[C@H]2CC[C@H]3[C@@H]4CNC5=CC(=O)CC[C@]5(C)[C@H]4CC[C@]23C)c(Br)c1 [Compound 49, 17β-N-(2,6-Dibromo-4-isopropyl)phenyl-carbamoyl-6-azaandrost-4-en-3-one]
[4]
  IC50: < 10 nM
[5]
  IC50: < 10 nM
[6]
  IC50: < 10 nM

## C[C@]12CC[C@H]3[C@@H](CNC4=CC(=O)CC[C@@]43C)[C@@H]1CC[C@@H]2C(=O)Nc1cc(C(F)(F)F)ccc1C(F)(F)F [Compound 50, 17β-N-(2,5-Ditrifluoromethyl)phenyl-carbamoyl-6-azaandrost-4-en-3-one]
[4]
  IC50: < 10 nM
[5]
  IC50: < 10 nM
[6]
  IC50: 10 to 100 nM

## CC(C)(C)C1CCC(NC(=O)[C@H]2CC[C@H]3[C@@H]4CNC5=CC(=O)CC[C@]5(C)[C@H]4CC[C@]23C)CC1 (stereo partly drawn) [Compound 51, 17β-N-(4-t-Butyl)cyclohexyl-carbamoyl-6-azaandrost-4-en-3-one]
[4]
  IC50: > 100 nM
[5]
  IC50: 10 to 100 nM
[6]
  IC50: > 100 nM

## C[C@]12CC[C@H]3[C@@H](CNC4=CC(=O)CC[C@@]43C)[C@@H]1CC[C@@H]2C(=O)Nc1ccccc1Br [Compound 52, 17β-N-(2-Bromo)phenyl-carbamoyl-6-azaandrost-4-en-3-one]
[4]
  IC50: 10 to 100 nM
[5]
  IC50: < 10 nM
[6]
  IC50: 10 to 100 nM

## C[C@]12CC[C@H]3[C@@H](CNC4=CC(=O)CC[C@@]43C)[C@@H]1CC[C@@H]2C(=O)Nc1ccccc1-c1ccccc1 [Compound 53, 17β-N-(2-Phenyl)phenyl-carbamoyl-6-azaandrost-4-en-3-one]
[4]
  IC50: 10 to 100 nM
[5]
  IC50: < 10 nM
[6]
  IC50: < 10 nM

## CC(C)c1cccc(C(C)C)c1NC(=O)[C@H]1CC[C@H]2[C@@H]3CNC4=CC(=O)C=C[C@]4(C)[C@H]3CC[C@]12C [Compound 93, 17β-N-(2,6-Di-i-propyl)phenyl-carbamoyl-6-azaandrost-1,4-dien-3-one]
[4]
  IC50: 10 to 100 nM
[5]
  IC50: < 10 nM
[6]
  IC50: > 100 nM
